# Assay results: patent publication US7407775B2, “Method for identifying Listeria monocytogenes and culture medium” (Biomerieux S.A., priority 2000, dated 2008)
# Legend:
# Assay type in all cases: cell-based
# [1] = test system: Listeria monocytogenes ATCC 19115; assay: Experiment 1: esterase substrates, same chromogenic marker, fatty acids of different chain lengths; parameters: key to I (intensity of the color): —: the symbol “-” corresponds to the absence of color or intensity; 0 corresponds to no activity; 0.1 corresponds to a trace of color; 0.5 corresponds to very pale coloration; 1 corresponds to clear but low-intensity coloration; 1.5 corresponds to a degree of coloration intermediate between scores 1 and 2; 2 corresponds to clear coloration of moderate intensity; 2.5 corresponds to a degree of coloration intermediate between scores 2 and 3; 3 corresponds to intense coloration; 3.5 corresponds to a degree of coloration intermediate between scores 3 and 4; 4 corresponds to very intense coloration; conditions: 37° C., substrate 250 mg/l
# Protocol: (§1) A stock solution of each substrate at a concentration of 40 g/l was made up in a mixture of 40% Dimethylsulfoxide and 60% Polyoxyethylenesorbitan Monolaurate (Tween 20). An appropriate volume was added to three Columbia-type media while cooling to give a final substrate concentration of 250 mg/l. These dishes were divided into three areas and then each area was inoculated with a suspension (density=0.5 McFarland) of microorganisms taken from either the Applicant's own collection or the ATCC. The dishes were incubated for 48 hours at 37° C. The colonies which grew were examined by eye after 24 and 48 hours of incubation. Both the color and the intensity of the color of the colonies were recorded.
# (§2) In Table 1 above, as in the following Tables, C represents the color of the colonies after incubation, I represents the intensity of the color, and the symbol “-” corresponds to the absence of color or intensity; finally, IT defines the incubation time. It should be noted that the intensity of the color is scored on an arbitrary scale but one which is consistent for all the biological specimens and media tested. This scale is valid for this experiment as well as all those that follow. It can be defined in the following way: • 0 corresponds to no activity, • 0.1 corresponds to a trace of color, • 0.5 corresponds to very pale coloration, • 1 corresponds to clear but low-intensity coloration, • 1.5 corresponds to a degree of coloration intermediate between scores 1 and 2, • 2 corresponds to clear coloration of moderate intensity, • 2.5 corresponds to a degree of coloration intermediate between scores 2 and 3, • 3 corresponds to intense coloration, • 3.5 corresponds to a degree of coloration intermediate between scores 3 and 4, • 4 corresponds to very intense coloration.
# [2] = test system: Listeria monocytogenes ATCC 19117; assay: as above; parameters: key to I (intensity of the color): —: the symbol “-” corresponds to the absence of color or intensity; 0 corresponds to no activity; 0.1 corresponds to a trace of color; 0.5 corresponds to very pale coloration; 1 corresponds to clear but low-intensity coloration; 1.5 corresponds to a degree of coloration intermediate between scores 1 and 2; 2 corresponds to clear coloration of moderate intensity; 2.5 corresponds to a degree of coloration intermediate between scores 2 and 3; 3 corresponds to intense coloration; 3.5 corresponds to a degree of coloration intermediate between scores 3 and 4; 4 corresponds to very intense coloration; conditions: 37° C., substrate 250 mg/l
# Protocol: as §1, §2
# Listeria species = assay: Experiment 3: differentiation of Listeria species in liquid medium
# Protocol: as §2
# These substrates were lyophilized in the wells of API-type strips (Registered Trademark). Before use, the substrates contained in the wells were resuspended in an agar-free Columbia-type inoculation medium. […]
# The intensity of the color of the colonies was recorded.
Compound,C (color of the colonies) ([1]; IT 24 h),I (intensity of the color) ([1]; IT 24 h),C (color of the colonies) ([1]; IT 48 h),I (intensity of the color) ([1]; IT 48 h),C (color of the colonies) ([2]; IT 24 h),I (intensity of the color) ([2]; IT 24 h),C (color of the colonies) ([2]; IT 48 h),I (intensity of the color) ([2]; IT 48 h),differentiation between L. monocytogenes and other species belonging to the same genus (Listeria species)
"CCCCCCCC(=O)Oc1c[nH]c2ccc(Br)cc12 [Blue-C8, 5-Bromo-3-indolyl octanoate]",gray,1,gray,2,gray,1,gray,2,–
"CCCCCCCCC(=O)Oc1c[nH]c2ccc(Br)cc12 [Blue-C9, 5-Bromo-3-indolyl nonanoate]",gray,1,gray,2,gray,1,gray,1.5,–
"CCCCCCCCCC(=O)Oc1c[nH]c2ccc(Br)cc12 [Blue-C10, 5-Bromo-3-indolyl decanoate]",gray,0.5,gray,1,gray,0.5,gray,1,–
"CCCCCCCC(=O)Oc1c[nH]c2ccc(Br)c(Cl)c12 [X-C8, 5-Bromo-4-chloro-3-indolyl octanoate]",–,–,–,–,–,–,–,–,gave a contrast in color
